Source: patent US7964720B2, “Method of making porphyrins” (North Carolina State University, priority 2007, dated 2011)

Legend:
[1] = Description: 4. Solubility. […] We compared the solubility of 1, Pd-1, Zn-1 and Mg-1 in common organic solvents (CH2Cl2, THF, MeOH, ethyl acetate, toluene).
[2] = background statement; cited from earlier work
[3] = Stability of the magnesium chelate in solution and on silica column chromatography; assay type: physicochemical
Protocol: Thus, refluxing a mixture of 2 (100 mM) in toluene containing DBU (10 equiv vs. 2) and MgBr2 (3 equiv) in the presence of air afforded Mg(II)porphine (Mg-1) in 41% yield. Note that no quinone oxidant is required. Mg(II)porphine was purified by filtration through an alumina column. No free base porphine was detected in the reaction mixture. […] Neither starting material nor macrocyclic byproducts were detected. Therefore we performed the purification of Mg-1 without column chromatography. The crude reaction mixture was concentrated. The resulting oily material was treated with THF, filtered (to remove the polymeric material and inorganic salt), and filtrate was concentrated. Subsequent washing with water (to remove an excess of DBU) and crystallization from ethanol/water afforded Mg-1 in satisfactory purity. […] Note that Mg(II)porphine (Mg-1) was previously prepared by metalation of 1.^2

For `C1=Cc2cc3ccc(cc4nc(cc5ccc(cc1n2)[nH]5)C=C4)[nH]3` [compound 1, Porphine], the “general trend in solubility” value [1] is given as “Pd-1<1<Zn-1<<Mg-1”, the “solubility in common organic solvents” value [1] is given as “poor solubility” and the “solubility of the free base” value [2] is given as “extremely low solubility”.
In the case of Mg(II)porphine [Mg-1], the “general trend in solubility” value [1] is reported as “Pd-1<1<Zn-1<<Mg-1”, the “solubility in common organic solvents” value [1] is reported as “sufficiently high” and the stability in solution ([3]; in solution) is reported as “stable in solution”. For the same molecule, the “behaviour upon silica column chromatography” value ([3]; silica column chromatography) was “partial decomplexation”.
With Pd(II)porphine [Pd-1] the “general trend in solubility” value [1] was “Pd-1<1<Zn-1<<Mg-1”.
For Zn(II)porphine [Zn-1], the “general trend in solubility” value [1] was “Pd-1<1<Zn-1<<Mg-1”.
